These results are taken from US9795585B2, “Methods of using L-butylphthalide for the prevention and treatment of cerebral ischemia disease” (priority 2004, dated 2017).

The assay deals with permanent cerebral ischemic rats. Nature of the assay: Behavioral disorder and cerebral infarct area in permanent cerebral ischemic rats (FeCl3 on middle cerebral artery). The conditions noted are these: for reduction of cerebral infarct area / neurological deficit scores (effect in words) / ED40 (cerebral infarct area): vs model control group; for decrease of neurological deficit scores / ED30 (neurological deficit scores): i.v., 24 hours after administration; for neurological deficit scores (effect in words): intravenous injection. In kind it is in vivo, Wistar rats. As for the experimental part:
Experimental Animal: The same as Example 1. Experimental Equipments: COOLPIX955 digital camera, 722 grating spectroscope, XHF-1 high-speed disperser, YKH-II liquid high-speed mixer, WZ-50C2 micro infusion pump. Experimental Methods: Wistar rats were anesthetized by intraperitoneally injecting 12% chloral hydrate in 350 mg/kg, and fixed in lateral decubitus position. The skin at the midpoint on the line from exterior auditory canal to canthus was cut. The muscle was separated layer by layer to expose zygomatic arch and the squamous part of temporal bone. The zygomatic arch was scissored and then placed under an operating microscope. A window of 2 mm diameter was drilled by using a dentistry drill at a position of 2 mm under the anterior joint between zygomatic arch and the squamous part of temporal bone, so as to expose the middle cerebral artery. A little piece of filter paper was applied onto the middle artery, and 10 μl of 50% FeCl3 aqueous solution was dripped onto the filter paper. The filter paper was removed after 30 min, and washed with physiological brine. Two to three drops of penicillin (1.6×10^5 U/mL) were added so as to prevent infection of the cut. Then the cut was sutured layer by layer.

As to `CCCCC1OC(=O)c2ccccc21` (racemic) [dl-NBP, butylphthalide], the “ED30 (neurological deficit scores)” value was determined as 7.2 mg/kg, the “neurological deficit scores (effect in words)” value was “improvement” and the “ED40 (cerebral infarct area)” value worked out at 7.1 mg/kg. Besides, for the setting “2.5 mg/kg, tendency of reducing”, the “cerebral infarct area (effect in words)” value is recorded as “not significant”. In addition, the “reduction of cerebral infarct area” value (first of three doses) stood at 29.2%. For the same compound, the “decrease of neurological deficit scores” value (high dose) worked out at 37.5%. The “decrease of neurological deficit scores” value (low dose) worked out at 15.6%. The “decrease of neurological deficit scores” value (moderate dose) came to 21.9%. Under “second of three doses”, the “reduction of cerebral infarct area” value was 35.2%. For the setting “third of three doses”, the “reduction of cerebral infarct area” value is recorded as 44.4%.
Consider `CCCC[C@@H]1OC(=O)c2ccccc21` [l-NBP, L-butylphthalide], for which the “ED30 (neurological deficit scores)” value is reported as 6.2 mg/kg, the “neurological deficit scores (effect in words)” value is given as “improvement” and the “ED40 (cerebral infarct area)” value is recorded as 3.3 mg/kg. In addition, the “cerebral infarct area (effect in words)” value (5 and 10 mg/kg, effect increased with dose) is “significantly reduce”. Further, under “as calculated by converting into ED50”, the “effect on cerebral infarct area relative to d-NBP” value is recorded as “about 3.1 times”. In addition, the “cerebral infarct area (effect in words)” value (dose not given) is “significantly reduce”. Besides, the “reduction of cerebral infarct area” value (first of three doses) was found to be 38.4%. Further, under “high dose”, the “decrease of neurological deficit scores” value is on record as 35.9%. For the same compound, the “decrease of neurological deficit scores” value (low dose) is given as 17.2%. Moreover, under “moderate dose”, the “decrease of neurological deficit scores” value is listed as 29.7%. In addition, under “second of three doses”, the “reduction of cerebral infarct area” value is listed as 41.9%. For the same compound, the “reduction of cerebral infarct area” value (third of three doses) came out at 50.7%.
